Source: patent US6890706B2, “Process for removing stain in a photographic material” (Ciba Specialty Chemicals Corporation, priority 1999, dated 2005)

Test: Solubility in 0.2M K2CO3 solution (pH of a developer solution)
Assay type: physicochemical
Settings: room temperature
For `O=C([O-])CC(Nc1nc(Nc2ccccc2)nc(Nc2ccc(/C=C/c3ccc(Nc4nc(Nc5ccccc5)nc(NC(CC(=O)[O-])C(=O)[O-])n4)cc3S(=O)(=O)[O-])c(S(=O)(=O)[O-])c2)n1)C(=O)[O-].[Na+].[Na+].[Na+].[Na+].[Na+].[Na+]` (stereo not shown) [B], the “Solubility of the active substance in K2CO3 0.2M solution” value (shortened to “Solubility of the active substance”) was 25.6%.
In the case of `O=C([O-])CC(Nc1nc(Nc2ccc(/C=C/c3ccc(Nc4nc(Nc5cc(S(=O)(=O)[O-])ccc5S(=O)(=O)[O-])nc(NC(CC(=O)[O-])C(=O)[O-])n4)cc3S(=O)(=O)[O-])c(S(=O)(=O)[O-])c2)nc(Nc2cc(S(=O)(=O)[O-])ccc2S(=O)(=O)[O-])n1)C(=O)[O-].[Na+].[Na+].[Na+].[Na+].[Na+].[Na+].[Na+].[Na+].[Na+].[Na+]` (stereo not shown) [C], the “Solubility of the active substance” value was 39.0%.
For `COc1nc(NCCS(=O)(=O)[O-])nc(Nc2ccc(/C=C/c3ccc(Nc4nc(OC)nc(N(CCO)CCO)n4)cc3S(=O)(=O)[O-])c(S(=O)(=O)[O-])c2)n1.[Na+].[Na+].[Na+]` [Comp-1, reference compound], the “Solubility of the active substance” value was 3.4%.
For `O=S(=O)([O-])c1ccc(Nc2nc(Nc3ccc(/C=C/c4ccc(Nc5nc(Nc6ccc(S(=O)(=O)[O-])cc6S(=O)(=O)[O-])nc(N6CCOCC6)n5)cc4S(=O)(=O)[O-])c(S(=O)(=O)[O-])c3)nc(N3CCOCC3)n2)c(S(=O)(=O)[O-])c1.[Na+].[Na+].[Na+].[Na+].[Na+].[Na+]` [Comp-3, reference compound], the “Solubility of the active substance” value was 6.6%.
For `O=C([O-])CN(CC(=O)[O-])c1nc(Nc2ccccc2)nc(Nc2ccc(/C=C/c3ccc(Nc4nc(Nc5ccccc5)nc(N(CC(=O)[O-])CC(=O)[O-])n4)cc3S(=O)(=O)[O-])c(S(=O)(=O)[O-])c2)n1.[Na+].[Na+].[Na+].[Na+].[Na+].[Na+]` [E], the “Solubility of the active substance” value was 38.5%.
In the case of `O=C(O)CN(CC(=O)O)c1nc(Nc2ccc(/C=C/c3ccc(Nc4nc(Nc5cc(S(=O)(=O)O)ccc5S(=O)(=O)O)nc(N(CC(=O)O)CC(=O)O)n4)cc3S(=O)(=O)O)c(S(=O)(=O)O)c2)nc(Nc2cc(S(=O)(=O)O)ccc2S(=O)(=O)O)n1.[Na+].[Na+].[Na+].[Na+].[Na+].[Na+].[Na+].[Na+].[Na+].[Na+]` [G], the “Solubility of the active substance” value was 32.0%.
With `CN(CC(=O)[O-])c1nc(Nc2ccc(/C=C/c3ccc(Nc4nc(Nc5cc(S(=O)(=O)[O-])ccc5S(=O)(=O)[O-])nc(N(C)CC(=O)[O-])n4)cc3S(=O)(=O)[O-])c(S(=O)(=O)[O-])c2)nc(Nc2cc(S(=O)(=O)[O-])ccc2S(=O)(=O)[O-])n1.[Na+].[Na+].[Na+].[Na+].[Na+].[Na+].[Na+].[Na+]` [H] the “Solubility of the active substance” value was 32.0%.
